Among the data in patent publication US8642594B2, “Substituted thieno[2,3-d]pyrimidines as HSP90 inhibitors” (Vernalis (R&D) Limited, priority 2003, dated 2014) are IC50 values, retold here.

As a reminder, the IC50 is the midpoint of a concentration-inhibition curve.

T1 sequence (P08238 whole entry): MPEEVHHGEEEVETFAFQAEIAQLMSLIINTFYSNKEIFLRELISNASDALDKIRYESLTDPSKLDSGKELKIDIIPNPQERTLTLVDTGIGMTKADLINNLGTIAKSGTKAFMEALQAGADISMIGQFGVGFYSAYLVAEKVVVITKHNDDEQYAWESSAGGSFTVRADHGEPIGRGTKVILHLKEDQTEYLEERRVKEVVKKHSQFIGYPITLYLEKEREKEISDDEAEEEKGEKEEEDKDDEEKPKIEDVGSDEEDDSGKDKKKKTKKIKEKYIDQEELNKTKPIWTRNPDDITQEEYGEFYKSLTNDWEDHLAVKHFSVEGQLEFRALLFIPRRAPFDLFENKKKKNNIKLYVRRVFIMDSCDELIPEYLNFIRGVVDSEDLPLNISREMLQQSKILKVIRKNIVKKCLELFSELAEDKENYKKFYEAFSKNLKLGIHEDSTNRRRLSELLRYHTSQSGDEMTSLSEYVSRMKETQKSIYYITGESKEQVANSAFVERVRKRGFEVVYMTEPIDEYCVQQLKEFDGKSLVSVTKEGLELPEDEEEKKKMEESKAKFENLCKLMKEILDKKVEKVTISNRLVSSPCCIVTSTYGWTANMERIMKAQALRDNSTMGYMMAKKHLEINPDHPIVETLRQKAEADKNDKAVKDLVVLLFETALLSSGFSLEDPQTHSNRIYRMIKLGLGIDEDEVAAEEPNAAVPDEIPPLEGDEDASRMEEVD

The first assay has as its target T1, Human full-length Hsp90 (Homo sapiens, UniProt P08238).
T1 construct: E. coli expressed human full-length HSP90 protein, purified >95%; made in house; host or cells: E. coli
Kind of assay: Fluorescence polarization assay (competitive binding to HSP90, probe RBT0045864-FAM).
Conditions: not given
As for the experimental part: Fluorescence Polarization Assay
Fluorescence polarization {also known as fluorescence anisotropy} measures the rotation of a fluorescing species in solution, where the larger molecule the more polarized the fluorescence emission. When the fluorophore is excited with polarized light, the emitted light is also polarized. The molecular size is proportional to the polarization of the fluorescence emission.
The fluoroscein-labelled probe—RBT0045864-FAM—
Test compound is added to the assay plate, left to equilibrate and the anisotropy measured again. Any change in anisotropy is due to competitive binding of compound to HSP90, thereby releasing probe.
Stored at room temperature. • 3) BSA (bovine serum albumen) 10 mg/ml (New England Biolabs #B9001S) • 4) 20 mM probe in 100% DMSO stock concentration. Stored in the dark at RT. Working concentration is 200 nM diluted in AR water and stored at 4° C. […] Protocol • 1) Add 100 μl 1× buffer to wells 11A and 12A (=FP BLNK) • 2) Prepare assay mix—all reagents are kept on ice with a lid on the bucket as the probe is light-sensitive.
This gives 2.5 mM {50×} stock cpd—assuming cpds 20 mM. • 4) Repeat for wells A2 to A10. Control in columns 11 and 12. • 5) Transfer 5 μl from row A to row B—not column 12. Mix well. • 6) Transfer 5 μl from row B to row C. […] Add 2 μl of 100 mM standard cpd to wells B12-H12 {is positive control} • 13) The Z′ factor is calculated from zero controls and positive wells.
(In general: Polarisation of emitted light reports the rotation of a fluorescent probe.)
`CCNC(=O)c1cc2c(-c3cc(OCCNCCOC)c(Cl)cc3Cl)nc(N)nc2s1` [Example 247] came in with an IC50 below 10 µM. On the same count and under the same terms, under `CCNC(=O)c1cc2c(-c3cc(OCCN4CCCC4)c(Cl)cc3Cl)nc(N)nc2s1` [Example 253] stands below 10 µM.

The same assay, now with this note: fluorescence polarization assay, activity range; read-out: Hsp90 FP IC50.
Consider `Nc1nc(-c2ccc(Cl)cc2Cl)c2cc(C(=O)NCc3ccc(S(N)(=O)=O)cc3)sc2n1` [Example 116], for which the IC50 is below 10 µM.

As for `CCOC(=O)c1cc2c(NC(C)(C)c3ccccc3)nc(N)nc2s1` [Example 29], the IC50 was above 10 µM. Consider `CCNC(=O)c1cc2c(-c3cc(OCC4CCCCN4C)c(Cl)cc3Cl)nc(N)nc2s1` (centres unmarked) [Example 273, 2-Amino-4-[2,4-dichloro-5-(1-methyl-piperidin-2-ylmethoxy)-phenyl]-thieno[2,3d]pyrimidine-6-carboxylic acid ethylamide], for which the IC50 is below 10 µM. Regarding `CCOC(=O)c1cc2c(C(=O)c3ccc4c(c3)OCCO4)nc(N)nc2s1` [Example 312], the half-inhibitory concentration (IC50) is below 10 µM. For `CCOC(=O)c1cc2c(NCCCc3c[nH]nc3C)nc(N)nc2s1` [Example 37], the IC50 is above 10 µM.

`CCN(CC)CCOc1cc(-c2nc(N)nc3sc(C(=O)NC(C)(C)C)cc23)c(Cl)cc1Cl` [Example 265]: the IC50 is below 10 µM. For the compound `CCCNC(=O)c1cc2c(-c3ccc(C)cc3C)nc(N)nc2s1` [Example 61], the IC50 is below 10 µM. Regarding `CCCNCc1ccc(C)c(-c2nc(N)nc3sc(C(=O)NCC)cc23)c1` [Example 197, 2-Amino-4-(2-methyl-5-propylaminomethyl-phenyl)-thieno[2,3-d]pyrimidine-6-carboxylic acid ethylamide], the IC50 was below 10 µM. The same measure, in the same setting: under `CCOC(=O)c1cc2c(-c3cccc(C#N)c3)nc(N)nc2s1` [Example 17] stands above 10 µM.

As to `CCOC(=O)c1cc2c(/C=C/c3cccc(OC)c3)nc(N)nc2s1` [Example 279], the IC50 is below 10 µM. Same read-out and setting: under `CCOC(=O)c1cc2c(-c3cc(OCc4ccccc4)c(Cl)cc3Cl)nc(N)nc2s1` [Example 239] stands below 10 µM. Regarding `CCOC(=O)c1cc2c(-c3ccccc3Cl)nc(N)nc2s1` [Example 9], the IC50 is below 10 µM. On the same count and under the same terms, under `C[C@H](NC(=O)c1cc2c(-c3ccc(Cl)cc3Cl)nc(N)nc2s1)c1ccccc1` [Example 139] stands below 10 µM. As for `CCNC(=O)c1cc2c(-c3cc(CNCc4ccccc4)c(C)cc3C)nc(N)nc2s1` [Example 232], the IC50 was below 10 µM. On to `CCNC(=O)c1cc2c(-c3cc(OCCN4CCC(F)CC4)c(Cl)cc3Cl)nc(N)nc2s1` [Example 249], for which the IC50 was below 10 µM.

As to `Nc1nc(-c2ccc(Cl)cc2Cl)c2cc(C(=O)NCc3ccncc3)sc2n1` [Example 141], the IC50 is below 10 µM. The same measure, in the same setting: under `COC(=O)c1cc2c(Nc3ccccc3)nc(N)nc2s1` [Example 21] stands above 10 µM; under `CCOC(=O)c1cc2c(-c3cccc4cccnc34)nc(N)nc2s1` [Example 100], above 10 µM.

As to `NC(=O)[C@H](CO)NC(=O)c1cc2c(-c3ccc(Cl)cc3Cl)nc(N)nc2s1` [Example 162], the IC50 was below 10 µM. The same measure, in the same setting: under `Cc1ccc(-c2nc(N)nc3sc(C(=O)NCCCN(C)C)cc23)c(C)c1` [Example 83] stands below 10 µM; under `CCOC(=O)c1cc2c(C(=O)c3ccc(OC)c(F)c3)nc(N)nc2s1` [Example 314], below 10 µM; under `Cc1ccc(-c2nc(N)nc3sc(C(=O)NC(C)C)cc23)c(C)c1` [Example 81], below 10 µM. For `CCCN(C)C(=O)c1cc2c(-c3ccc(C)cc3C)nc(N)nc2s1` [Example 93], the IC50 is above 10 µM. The same measure, in the same setting: under `CCN(CC)CCCNC(=O)c1cc2c(-c3ccccc3)nc(N)nc2s1` [Example 58] stands above 10 µM; under `CC(C)NC(=O)c1cc2c(-c3cc(O)c(Cl)cc3Cl)nc(N)nc2s1` [Example 248], below 10 µM; under `CCOC(=O)c1cc2c(-c3ccc(OCC#N)cc3C)nc(N)nc2s1` [Example 188], below 10 µM. Same read-out and setting: under `CCOC(=O)c1cc2c(-c3cc(CNCCN4CCOCC4)ccc3C)nc(N)nc2s1` [Example 198] stands below 10 µM; under `C=CCNCc1ccc(C)c(-c2nc(N)nc3sc(C(=O)NCC)cc23)c1` [Example 209], below 10 µM. `CCOC(=O)c1cc2c(-c3csc4ccccc34)nc(N)nc2s1` [Example 290]: the IC50 was above 10 µM. Still for that read-out and setting: under `CCOC(=O)c1cc2c(C(C)c3ccccc3)nc(N)nc2s1` (centres unmarked) [Example 285] stands below 10 µM. Turning to `CCNC(=O)c1cc2c(-c3cc(C)c(C)cc3C)nc(N)nc2s1` [Example 150], the IC50 was below 10 µM. On the same count and under the same terms, under `Nc1nc(-c2ccc(Cl)cc2Cl)c2cc(C(=O)NCC(F)(F)F)sc2n1` [Example 134] stands below 10 µM; under `CCOC(=O)c1cc2c(-c3ccc(C#N)cc3Cl)nc(N)nc2s1` [Example 148], below 10 µM.

`Cc1ccc(-c2nc(N)nc3sc(C(=O)Nc4ccccc4)cc23)c(C)c1` [Example 91]: the IC50 was below 10 µM. Turning to `COCCCNC(=O)c1cc2c(-c3ccc(Cl)cc3Cl)nc(N)nc2s1` [Example 126], the IC50 was below 10 µM. For the compound `C=C(c1ccccc1)c1nc(N)nc2sc(C(=O)OCC)cc12` [Example 276], the IC50 was below 10 µM. In the case of `CCNC(=O)c1cc2c(-c3cc(CNCC4CCCO4)ccc3C)nc(N)nc2s1` (centres unmarked) [Example 212], the IC50 is below 10 µM. Same read-out and setting: under `CCNC(=O)c1cc2c(-c3cc(CNCCCOC)ccc3C)nc(N)nc2s1` [Example 202] stands below 10 µM; under `Nc1nc(-c2ccccc2)c2cc(C(=O)NCCCN3CCOCC3)sc2n1` [Example 66], above 10 µM; under `CCNC(=O)c1cc2c(-c3cc(CNCC4CCCO4)ccc3C)nc(N)nc2s1` (centres unmarked) [Example 223], below 10 µM. Turning to `CCNC(=O)c1cc2c(-c3c(C)cccc3C)nc(N)nc2s1` [Example 73], the IC50 is below 10 µM. For `CCOC(=O)c1cc2c(-c3ccc(OCC)cc3)nc(N)nc2s1` [Example 8], the IC50 is below 10 µM. On the same count and under the same terms, under `CCNC(=O)c1cc2c(-c3cc(CNCC(N)=O)ccc3C)nc(N)nc2s1` [Example 219] stands below 10 µM; under `CCOC(=O)c1cc2c(-c3ccc(C)cc3)nc(N)nc2s1` [Example 11], below 10 µM; under `CCOC(=O)c1cc2c(-c3cc(C)c(Br)cc3C)nc(N)nc2s1` [Example 105], below 10 µM. On the same count and under the same terms, under `CCNC(=O)c1cc2c(/C=C/c3ccccc3)nc(N)nc2s1` [Example 286] stands below 10 µM; under `CCOC(=O)c1cc2c(-c3cccnc3)nc(N)nc2s1` [Example 94], above 10 µM. As to `CCNC(=O)c1cc2c(-c3cc(CNCc4ccccn4)ccc3C)nc(N)nc2s1` [Example 216], the IC50 was below 10 µM.

With `CCNC(=O)c1cc2c(-c3cccc(OCc4ccccc4)c3)nc(N)nc2s1` [Example 243], the IC50 was below 10 µM. Same read-out and setting: under `CN(C)CCCNC(=O)c1cc2c(-c3ccc(Cl)cc3Cl)nc(N)nc2s1` [Example 102] stands below 10 µM; under `CCNC(=O)c1cc2c(-c3cc(CNCCO)ccc3C)nc(N)nc2s1` [Example 205], below 10 µM.

Consider `CCOC(=O)c1cc2c(C#N)nc(N)nc2s1` [Example 319, 2-Amino-4-cyano-thieno[2,3-d]pyrimidine-6-carboxylic acid ethyl ester], for which the half-inhibitory concentration (IC50) is below 10 µM. With `CCNC(=O)c1cc2c(-c3cc(CNCc4ccccc4)ccc3C)nc(N)nc2s1` [Example 200], the IC50 is below 10 µM. On the same count and under the same terms, under `C=C(c1ccc(F)cc1)c1nc(N)nc2sc(C(=O)OCC)cc12` [Example 277] stands below 10 µM. On the same count and under the same terms, under `CCCNC(=O)c1ccc(C)c(-c2nc(N)nc3sc(C(=O)OCC)cc23)c1` [Example 181] stands below 10 µM. Same read-out and setting: under `Nc1nc(-c2ccc(Cl)cc2Cl)c2cc(C(=O)Nc3cc[nH]n3)sc2n1` [Example 143] stands below 10 µM; under `CCOC(=O)c1cc2c(C(C#N)c3ccc4c(c3)OCO4)nc(N)nc2s1` (centres unmarked) [Example 316, 2-Amino-4-(benzo[1,3]dioxol-5-yl-cyano-methyl)-thieno[2,3-d]pyrimidine-6-carboxylic acid ethyl ester], below 10 µM. With `Cc1ccc(-c2nc(N)nc3sc(S(=O)(=O)NC4CC4)cc23)c(C)c1` [Example 274, 2-Amino-4-(2,4-dimethyl-phenyl)-thieno[2,3-d]pyrimidine-6-sulfonic acid cyclopropylamide], the IC50 was below 10 µM. Same read-out and setting: under `Nc1nc(-c2ccc(Cl)cc2Cl)c2cc(C(=O)Nc3ccc(F)cc3)sc2n1` [Example 135] stands below 10 µM; under `Nc1nc(-c2ccccc2)c2cc(C(=O)NC3CCCC3)sc2n1` [Example 62], below 10 µM; under `CCOC(=O)c1cc2c(-c3ccc(C#N)cc3)nc(N)nc2s1` [Example 16], below 10 µM. Still for that read-out and setting: under `CCOC(=O)c1cc2c(-c3cc(Cl)ccc3C)nc(N)nc2s1` [Example 178] stands below 10 µM; under `CCNC(=O)c1cc2c(-c3cc(CNCC(C)C)ccc3C)nc(N)nc2s1` [Example 218], below 10 µM.
